Experimental data as given in US20040076989A1, “Synaptic transmission assay” (priority 2000, published 2004).
Entries after “also recorded” stand apart in the source; their conditions may differ.

How the values were obtained:
[1] = tested on: zif268 mRNA expression; assay: zif268 mRNA assay (Northern blot) in cultured dissociated hippocampal neurons; assay type: cell-based; conditions: added to induction medium
Procedure: The peak in zif268 expression after 30 min established the optimal delay for mRNA-based assays. Similar optimisation of protein-based immunohistochemical assays indicates an optimum 2 h post-exposure delay.
Zif268 mRNA assays were carried out as in Example 2, with cells exposed to ACSF control, to induction medium, or to induction medium with the addition of […] (an inhibitor of MAPK kinase) (FIG. 15) or with the addition of a mixture of the calcium channel blocker cadmium and the glutamate receptor antagonists AP5 and CNQX (FIG. 16).

[2] = tested on: neuronal zif268 expression; assay: zif268 immunocytochemical assay (zif268/NeuN double-labelled neurons) in dissociated hippocampal neuron culture; assay type: cell-based, Sprague-Dawley rat; conditions: added to induction medium, 0.2 μM each, 10 min exposure; listed as Carbachol
Procedure: Hippocampal neurons were prepared from late embryonic or 1st postnatal day Sprague-Dawley rates, and grown in dissociated cell culture in microtitre plates. After 7-21 days in vitro, serum-containing medium was replaced with serum-free medium for 24 h. This medium was then replaced with ACSF or with induction medium for 10 minutes; these solutions were then replaced with serum-free medium. After 1 hour, cells were fixed by replacement of serum-free medium with phosphate-buffered saline containing 4% paraformaldehyde. Immunolabelling was then carried out with rabbit antiserum against zif268 and mouse antibodies against the neuron-specific antigen NeuN. After washing, bound antibodies were visualised by incubation with Alexa488-labelled anti-rabbit IgG and Cy3-labelled anti-mouse IgG (FIG. 12 top).
An immunocytochemical assay was carried out as in Example 3, with cells exposed to ACSF, to induction medium, to induction medium with the addition of carbachol and isoproterenol (0.2 μM each) or to induction medium with the addition of carbachol only (0.2 μM).

COc1cccc(-c2cc(=O)c3ccccc3o2)c1N [PD98959]
effect on chemically-induced zif268 mRNA expression [1]: significantly reduced; also recorded: inhibits

C[N+](C)(C)CCOC(N)=O [carbachol]
effect on chemically induced increase in neuronal zif268 immunoreactivity [2]: no effect
